# Results from publication PMC6271771, “4-Amino-substituted Benzenesulfonamides as Inhibitors of Human Carbonic Anhydrases” (Molecules, 2014).
# “And” between values parts separate entries of the source, which are not always exact repeats. Equal values may be shown once. Read-outs that look alike come from different tables or passages of the source.
# Columns and labels:
# CA I = target: T1, CA I (Homo sapiens, UniProt P00915); assay: Fluorescent thermal shift assay (FTSA), CA I; type: binding
# T1 construct: made in house
# CA II = target: T2, CA II (Homo sapiens, UniProt P00918); assay: Fluorescent thermal shift assay (FTSA), CA II; type: binding; conditions: pH 7.0, 37 °C, read-out: Compound Dissociation Constants Kd for CA II
# T2 construct: made in house
# CA VI = target: T3, CA VI (Homo sapiens, UniProt P23280); assay: Fluorescent thermal shift assay (FTSA), CA VI; type: binding; conditions: FTSA, pH 7.0, 37 °C; read-out: Compound Dissociation Constants Kd for CA VI
# T3 construct: made in house
# CA VII = target: T4, CA VII (Homo sapiens, UniProt P43166); assay: Fluorescent thermal shift assay (FTSA), CA VII; type: binding
# T4 construct: made in house
# CA XII = target: T5, CA XII (Homo sapiens, UniProt O43570); assay: Fluorescent thermal shift assay (FTSA), CA XII; type: binding; conditions: FTSA, pH 7.0, 37 °C; read-out: Compound Dissociation Constants Kd for CA XII
# T5 construct: made in house
# CA XIII = target: T6, CA XIII (Homo sapiens, UniProt Q8N1Q1); assay: Fluorescent thermal shift assay (FTSA), CA XIII; type: binding; conditions: FTSA, pH 7.0, 37 °C; read-out: Compound Dissociation Constants Kd for CA XIII
# T6 construct: made in house
# [1] = FTSA, pH 7.0, 37 °C, read-out: Compound Dissociation Constants Kd for CA I
# [2] = FTSA, pH 7.0, 37 °C, read-out: Compound Dissociation Constants Kd for CA VII
# T3 sequence (P23280 18-308): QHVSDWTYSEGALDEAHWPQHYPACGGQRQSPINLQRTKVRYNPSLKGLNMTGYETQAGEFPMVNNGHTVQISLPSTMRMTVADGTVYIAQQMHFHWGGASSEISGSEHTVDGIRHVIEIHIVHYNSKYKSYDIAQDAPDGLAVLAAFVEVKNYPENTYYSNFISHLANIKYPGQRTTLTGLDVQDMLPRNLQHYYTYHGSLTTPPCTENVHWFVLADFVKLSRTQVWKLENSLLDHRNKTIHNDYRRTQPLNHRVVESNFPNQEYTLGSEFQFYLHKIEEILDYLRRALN
# T4 sequence (P43166 whole entry): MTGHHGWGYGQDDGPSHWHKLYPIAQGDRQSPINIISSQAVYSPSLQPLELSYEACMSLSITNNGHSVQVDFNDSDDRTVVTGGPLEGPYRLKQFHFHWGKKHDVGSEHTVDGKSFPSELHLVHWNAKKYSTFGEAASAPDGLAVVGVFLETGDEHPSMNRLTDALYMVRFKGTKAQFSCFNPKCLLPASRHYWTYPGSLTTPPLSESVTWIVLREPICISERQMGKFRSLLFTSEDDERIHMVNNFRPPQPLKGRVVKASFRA
# T5 sequence (O43570 30-289 limits assumed): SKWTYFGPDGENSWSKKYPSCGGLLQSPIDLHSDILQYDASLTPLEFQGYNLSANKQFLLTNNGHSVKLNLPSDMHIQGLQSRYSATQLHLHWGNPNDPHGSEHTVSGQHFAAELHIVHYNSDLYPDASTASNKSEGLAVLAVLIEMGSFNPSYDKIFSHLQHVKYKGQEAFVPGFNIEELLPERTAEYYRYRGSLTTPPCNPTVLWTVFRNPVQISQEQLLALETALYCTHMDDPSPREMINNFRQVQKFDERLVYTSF
# T1 sequence (P00915 whole entry): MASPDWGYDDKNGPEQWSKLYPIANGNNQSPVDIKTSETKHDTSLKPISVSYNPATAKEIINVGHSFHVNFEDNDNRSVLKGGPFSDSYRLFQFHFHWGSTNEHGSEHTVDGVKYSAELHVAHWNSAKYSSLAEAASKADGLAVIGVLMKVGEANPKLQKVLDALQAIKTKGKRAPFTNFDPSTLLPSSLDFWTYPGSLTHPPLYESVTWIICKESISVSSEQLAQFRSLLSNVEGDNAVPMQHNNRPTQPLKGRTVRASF
# T6 sequence (Q8N1Q1 whole entry): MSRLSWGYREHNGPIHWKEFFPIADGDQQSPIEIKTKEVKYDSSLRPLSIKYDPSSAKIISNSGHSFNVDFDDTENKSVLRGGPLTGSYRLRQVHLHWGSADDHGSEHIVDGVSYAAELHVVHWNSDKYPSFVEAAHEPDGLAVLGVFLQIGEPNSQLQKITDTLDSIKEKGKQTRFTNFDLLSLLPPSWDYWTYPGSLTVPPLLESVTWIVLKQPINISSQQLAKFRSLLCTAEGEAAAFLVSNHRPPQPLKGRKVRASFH
Kd (CA I; [1]) [µM],Kd (CA II),Kd (CA VI) [µM],Kd (CA VII; [2]) [µM],Kd (CA XII) [µM],Kd (CA XIII) [µM],melting point [°C],CA I binding in the presence (32) versus absence (34) of the diazo group (CA I; comparison of Kd of 32 and 34),selectivity: bound to CA I times stronger than to CA II (CA I; ratio of FTSA Kd) [times],selectivity: bound to CA I times stronger than to CA VI (CA I; ratio of FTSA Kd) [times],selectivity: bound to CA I times stronger than to CA VII (CA I; ratio of FTSA Kd) [times],selectivity: bound to CA I times stronger than to CA XII (CA I; ratio of FTSA Kd) [times],selectivity: bound to CA I times stronger than to CA XIII (CA I; ratio of FTSA Kd) [times],Kd (CA I) [µM],Kd (CA VII) [µM],"times more weakly bound to CA I than SA (CA I; ratio of Kd, FTSA) [times]",Compound
0.0133,0.0714 µM,13.3,0.2,0.588,0.1,,,,,,,,,,,CCN(CC)/N=N/c1ccc(S(N)(=O)=O)cc1 [Compound 27]
1.11,0.67 µM and 0.667 µM,8.3,1.61,5.56,2.86,,,,,,,,,,,"NS(=O)(=O)c1ccc(N2CCC(=O)NC2=S)cc1 [Compound 6, 4-(4-Oxo-2-sulfanylidene-1,3-diazinan-1-yl)benzene-1-sulfonamide]"
15.4,1.85 µM,25,12.5,33.3,5.56,185 to 186,,,,,,,,,,"CC(=NNC(=O)CCNc1ccc(S(N)(=O)=O)cc1)c1ccccc1 [Compound 12, 4-{(2-[N'-(1-Phenylethylidene)hydrazinecarbonyl]ethyl}amino]benzene-1-sulfonamide]"
0.0333,0.0667 µM,3.2,0.286,2,1.4,,about six-fold stronger,,,,,,,,,NS(=O)(=O)c1ccc(/N=N/SCCO)cc1 [Compound 32]
10,2 µM,11.1,6.67,6.67,10,253 to 254,,,,,,,,,,"NS(=O)(=O)c1ccc(NCCc2n[nH]c(=S)n2-c2ccccc2)cc1 [Compound 23, 4-{[2-(4-Phenyl-5-sulfanylidene-4,5-dihydro-1H-1,2,4-triazol-3-yl)ethyl]amino}benzene-1-sulfonamide]"
12.5,2 µM,6.7,12.5,33.3,8.33,226 to 227,,,,,,,,,,"NS(=O)(=O)c1ccc(NCCC(=O)NN=Cc2ccc(Cl)cc2)cc1 [Compound 15, 4-[(2-{N'-[(4-Chlorophenyl)methylidene]hydrazinecarbonyl}ethyl]amino)benzene-1-sulfonamide]"
9.09,4 µM,8.3,5.56,5.56,9.09,,,,,,,,,,,"NS(=O)(=O)c1ccc(NCCC(=O)NNC(=S)Nc2ccccc2)cc1 [Compound 21, N-[(Phenylcarbamothioyl)amino]-3-[(4-sulfamoylphenil)amino]propanamide]"
20,3.6 µM,25,25,67,50,227 to 228.5,,,,,,,,,,"NS(=O)(=O)c1ccc(NCCC(=O)NN=Cc2ccc([N+](=O)[O-])cc2)cc1 [Compound 17, 4-[(2-{N′-[(4-Nitrophenyl)methylidene]hydrazinecarbonyl]ethyl)amino]benzene-1-sulfonamide]"
0.00667,0.0625 µM,10,0.12,0.77,0.0667,,,9.4,1500,18,115,10,,,,NS(=O)(=O)c1ccc(/N=N/N2CCCCC2)cc1 [Compound 30]
3.85,0.83 µM and 0.833 µM,12.5,1.54,5.56,8.33,,,,,,,,,,,"NS(=O)(=O)c1ccc(N2CCC(=O)NC2=O)cc1 [Compound 5, 4-(2,4-Dioxo-1,3-diazinan-1-yl)benzene-1-sulfonamide]"
0.029,0.1 µM,11.8,0.4,3.3,0.222,,,,,,,,,,,NS(=O)(=O)c1ccc(/N=N/N2CCOCC2)cc1 [Compound 29]
28.6,4 µM,7.1,12.5,1.85,18.5,,,,,,,,,,,"NS(=O)(=O)c1ccc(NCCC(=O)NNC(=O)Nc2ccccc2)cc1 [Compound 20, N-[(Phenylcarbamoyl)amino]-3-[(4-sulfamoylphenyl)amino]propanamide]"
40,12.5 µM,62.5,22.2,9.5,33.3,,,,,,,,,,,"NS(=O)(=O)c1ccc(NCCC(=O)O)cc1 [Compound 3, 3-[(4-Sulfamoylphenyl)amino]propanoic Acid]"
45.5,7.14 µM,71.4,28.6,33.3,50,216 to 217,,,,,,,,,,"CC(C)=NNC(=O)CCNc1ccc(S(N)(=O)=O)cc1 [Compound 11, 4-{[2-(N'-Propan-2-ylidenehydrazinecarbonyl)ethyl]amino}benzene-1-sulfonamide]"
0.5,0.278 µM,8.3,1,6.25,2.86,,,,,,,,,,,NCCS/N=N/c1ccc(S(N)(=O)=O)cc1 [Compound 33]
5.88,1.18 µM,28.6,5.6,10.5,3.33,,,,,,,,,,,"CCSc1nnc(CCNc2ccc(S(N)(=O)=O)cc2)o1 [Compound 25, 4-({2-[5-(Ethylsulfanyl)-1,3,4-oxadiazol-2-yl]ethyl}amino)benzene-1-sulfonamide]"
11.5,1.43 µM,25,16.7,50,4.35,170 to 171,,,,,,,,,,"NS(=O)(=O)c1ccc(NCCC(=O)NN=C(c2ccccc2)c2ccccc2)cc1 [Compound 13, 4-({2-[N'-(Diphenylmethylidene)hydrazinecarbonyl]ethyl}amino)benzene-1-sulfonamide]"
16.7,2 µM,25,11.1,28.6,6.25,,,,,,,,,,,Cc1ccc(C)n1NC(=O)CCNc1ccc(S(N)(=O)=O)cc1 [Compound 19]
12.5,1.82 µM,7.1,5.88,31.3,7.14,218 to 219,,,,,,,,,,"NS(=O)(=O)c1ccc(NCCC(=O)N/N=C/c2ccc(Br)cc2)cc1 [Compound 14, 4-[(2-{N'-[(4-Bromphenyl)methylidene]hydrazinecarbonyl}ethyl)amino]benzene-1-sulfonamide]"
37,8.33 µM,50,25,33.3,55.6,179 to 180.5,,,,,,,,,,CN(C)c1ccc(/C=N/NC(=O)CCNc2ccc(S(N)(=O)=O)cc2)cc1 [Compound 16]
55.6,10.5 µM,62.5,28.6,33.3,76.9,,,,,,,,,,,"NNC(=O)CCNc1ccc(S(N)(=O)=O)cc1 [Compound 8, 4-{[(2-Hydrazinecarbonyl)ethyl]amino}benzene-1-sulfonamide]"
12.5,4.55 µM,33.3,4.55,5.88,26.3,,,,,,,,,,,"NS(=O)(=O)c1ccc(NCCc2n[nH]c(=S)o2)cc1 [Compound 24, 4-{[2-(5-Sulfanylidene-4,5-dihydro-1,3,4-oxadiazol-2-yl)ethyl]amino}benzene-1-sulfonamide]"
,9.1 µM,71.4,,33.3,58.8,,,,,,,,35.7,35.7,,"COC(=O)CCNc1ccc(S(N)(=O)=O)cc1 [Compound 7, Methyl-3-[(4-sulfamoylphenyl)amino]propanoate]"
0.1,0.181 µM,13.3,0.769,2.7,0.4,,,,,,,,,,,CN(C)/N=N/c1ccc(S(N)(=O)=O)cc1 [Compound 26]
0.0333,0.133 µM,13.3,0.454,1.81,0.167,,,,,,,,,,,NS(=O)(=O)c1ccc(/N=N/N2CCCC2)cc1 [Compound 28]
170,20 µM,140,100,130,83,,,,,,,,,,1.7,"Nc1nnc(CCNc2ccc(S(N)(=O)=O)cc2)s1 [Compound 10, 4-{[2-(5-Amino-1,3,4-thiadiazol-2-yl)ethyl]amino}benzene-1-sulfonamide]"
> 200,40 µM,> 200,> 200,> 200,> 200,,,,,,,,,,,"CCSC(=NS(=O)(=O)c1ccc(NCCC(=O)O)cc1)SCC [Compound 4, 3-[(4-{[Bis(ethylthio)methylene]sulfamoyl}phenyl)amino]propanoic Acid]"
,,14,,,,,,,,,,,,,,"NS(=O)(=O)c1ccccc1 [BSA, benzenesulfonamide]"
58.8,10 µM,50,28.6,33.3,76.9,,,,,,,,,,,"NC(=S)NNC(=O)CCNc1ccc(S(N)(=O)=O)cc1 [Compound 9, N-(Carbamothioylamino)-3-[(4-sulfamoylphenyl)amino]propanamide]"
